# Experimental data taken from US5292901A, “Benzodioxole derivatives” (Eisai Co., Ltd., priority 1987, dated 1994).
# How the values were obtained:
# Assay type in all cases: in vivo, male Fischer (F344) rats
# [1] = tested on: liver injury induced by D-galactosamine; test: Experimental Example 1b: effect on liver injury induced by D-galactosamine in rats (group I-b); conditions: Rattus norvegicus, po, 48 h, Table 1b, D-galactosamine 400 mg/kg; for inhibition in vivo at 100 mg/kg: compound 100 mg/kg in 0.5% methylcellulose; for inhibition in vivo at 50 mg/kg: values marked *: administration of 50 mg/kg
# [2] = tested on: liver injury induced by D-galactosamine; test: Experimental Example 2b: inhibition of liver injury in rats (group I-b), method given as that of Experimental Example 1b; conditions: Rattus norvegicus, 48 h; Table 2b; compound 100 mg/kg oral in 0.5% methylcellulose; read-out: Inhibition ratio (%) GPT
# Method: The test was conducted in the same manner as shown in Experimental Example 1b except that the test compound was orally administered to the rats in a dose of 100 mg/kg in 0.5% methylcellulose solution.
# [3] = tested on: liver injury induced by D-galactosamine; test: Experimental Example 1d: effect on liver injury induced by D-galactosamine in rats (group I-d); conditions: Rattus norvegicus, Table 1d, D-galactosamine 300 mg/kg s.c., compound 50 mg/kg oral in distilled water or 0.5% methylcellulose, 48 h
# Method: (§1) 300 mg/kg of D-galactosamine was administered to male Fischer (F344) rats weighing around 180 g by subcutaneous injection to induce liver injury. Each compound was dissolved in distilled water was given by oral administration in a dose of 50 mg/kg one hour after the injection of D-galactosamine.
# (§2) The D-galactosamine was used in the form of a solution having a concentration of 200 mg/ml, obtained by dissolving D-galactosamine in a physiological saline solution to obtain a dilute D-galactosamine solution and adjusting the pH of the dilute solution to 7.0 with 10N aqueous potassium hydroxide.
# (§3) Blood was collected from the rat's tail vein 48 h after the injection of D-galactosamine. The blood coagulation time was determined by the hepaplastin test (HPT) and GPT activity in the blood plasma was determined by an enzymatic method.
# [4] = tested on: liver injury induced by D-galactosamine; test: Experimental Example 1f: effect on liver injury induced by D-galactosamine in rats (group I-f); conditions: Rattus norvegicus, po, 48 h, Table 1f, D-galactosamine 400 mg/kg, compound 100 mg/kg in 0.5% methylcellulose
# Method: as §1, §2, §3
# The test was conducted in the same way as shown in Experimental Example 1a except that 400 mg/kg of D-galactosamine was administered in its physiological saline solution and each test compound was used in an amount of 100 mg/kg in 0.5% methylcellulose liquid.
# [5] = tested on: liver injury induced by D-galactosamine; test: Experimental Example 1e: effect on liver injury induced by D-galactosamine in rats (group I-e); conditions: Rattus norvegicus, po, 48 h, Table 1e, D-galactosamine 400 mg/kg, compound 100 mg/kg in 0.5% aqueous methylcellulose
# Method: The D-galactosamine was used in the form of a solution having a concentration of 200 mg/ml, obtained by dissolving D-galactosamine in a physiological saline solution to obtain a dilute D-galactosamine solution and adjusting the pH of the dilute solution to 7.0 with 10N aqueous potassium hydroxide. Blood was collected from the rat's tail vein 48 h after the injection of D-galactosamine. The blood coagulation time was determined by the […]) and GPT activity in the blood plasma was determined by an enzymatic method.
# [6] = read-out: Inhibition ratio (%) GPT
# [7] = read-out: Inhibition ratio (%) HPT
structure (smiles),measurement,setting,value
NC(=O)CSCCc1ccc2c(c1)OCO2 [Compound 16],inhibition in vivo at 100 mg/kg,[1]; [6],86%
same,inhibition in vivo at 100 mg/kg,[1]; [7],94%
same,inhibition in vivo at 100 mg/kg,[2],61%
NC(=O)CCSCCc1ccc2c(c1)OCO2 [Compound 17],inhibition in vivo at 100 mg/kg,[1]; [6],97%
same,inhibition in vivo at 100 mg/kg,[1]; [7],99%
same,inhibition in vivo at 100 mg/kg,[2],98%
[O-][S+](CCO)CCc1ccc2c(c1)OCO2 (centres unmarked) [Compound 27],inhibition in vivo at 100 mg/kg,[1]; [6],54%
same,inhibition in vivo at 100 mg/kg,[1]; [7],65%
CCS(=O)(=O)CCc1ccc2c(c1)OCO2 [Compound 35],inhibition in vivo at 50 mg/kg,[3]; [6],76%
same,inhibition in vivo at 50 mg/kg,[3]; [7],60%
"CCC(Cc1ccc2c(c1)OCO2)SCC(=O)O (centres unmarked) [Example 26, Sodium [[1-{(1,3-benzodioxol-5-yl)methyl}propyl]thio]acetate]",inhibition in vivo at 50 mg/kg,[3]; [6],53%
same,inhibition in vivo at 50 mg/kg,[3]; [7],48%
CCCC(SCC(=O)NCC(=O)O)c1ccc2c(c1)OCO2 (centres unmarked) [Compound 17],inhibition in vivo at 100 mg/kg,[4]; [6],91%
same,inhibition in vivo at 100 mg/kg,[4]; [7],70%
CC(CC(=O)O)SCCc1ccc2c(c1)OCO2 (centres unmarked) [Compound 13],inhibition in vivo at 100 mg/kg,[1]; [6],99%
same,inhibition in vivo at 100 mg/kg,[1]; [7],99%
same,inhibition in vivo at 100 mg/kg,[2],86%
"CC(=O)CSCCc1ccc2c(c1)OCO2 [Example 1, [{2-(1,3-Benzodioxol-5-yl)ethyl}thio]propan-2-one]",inhibition in vivo at 50 mg/kg,[3]; [6],89%
same,inhibition in vivo at 50 mg/kg,[3]; [7],100%
CCCC(SCC(=O)O)c1ccc2c(c1)OCO2 (centres unmarked) [Compound 1],inhibition in vivo at 100 mg/kg,[4]; [6],84%
same,inhibition in vivo at 100 mg/kg,[4]; [7],100%
O=C(O)CSCCc1ccc2c(c1)OCO2 [Compound 8],inhibition in vivo at 100 mg/kg,[2],53%
OCCSCCc1ccc2c(c1)OCO2 [Compound 3],inhibition in vivo at 100 mg/kg,[1]; [6],97%
same,inhibition in vivo at 100 mg/kg,[1]; [7],94%
Cc1cc2c(cc1C(C)SCC(=O)O)OCO2 (centres unmarked) [Compound 3],inhibition in vivo at 100 mg/kg,[4]; [6],100%
same,inhibition in vivo at 100 mg/kg,[4]; [7],100%
"c1cc2c(cc1CCSSCCc1ccc3c(c1)OCO3)OCO2 [Compound 2, Bis{2-(1,3-benzodioxol-5-yl)ethyl}disulfide]",inhibition in vivo at 100 mg/kg,[5]; [6],64%
same,inhibition in vivo at 100 mg/kg,[5]; [7],57%
"CC(C)(SCCc1ccc2c(c1)OCO2)C(=O)O [Example 4, Sodium 2-methyl-2-[{2-(1,3-benzodioxol-5-yl)ethyl}thio]propionate]",inhibition in vivo at 50 mg/kg,[3]; [6],84%
same,inhibition in vivo at 50 mg/kg,[3]; [7],91%
"O=C(OCCSSCc1ccc2c(c1)OCO2)c1cccnc1 [Compound 10, 2-[{(1,3-Benzodioxol-5-yl)methyl}dithio]ethyl nicotinate]",inhibition in vivo at 100 mg/kg,[5]; [6],72%
same,inhibition in vivo at 100 mg/kg,[5]; [7],43%
CN(C)C(=O)CCSCCc1ccc2c(c1)OCO2 [Compound 19],inhibition in vivo at 100 mg/kg,[1]; [6],69%
same,inhibition in vivo at 100 mg/kg,[1]; [7],90%
COCCSCCc1ccc2c(c1)OCO2 [Compound 6],inhibition in vivo at 100 mg/kg,[1]; [6],79%
same,inhibition in vivo at 100 mg/kg,[1]; [7],93%
"OCCSSCCc1ccc2c(c1)OCO2 [Compound 1, 2-[{2-(1,3-Benzodioxol-5-yl)ethyl}dithio]ethanol]",inhibition in vivo at 100 mg/kg,[5]; [6],92%
same,inhibition in vivo at 100 mg/kg,[5]; [7],62%
Cc1cc2c(cc1C(C)SCC(N)=O)OCO2 (centres unmarked) [Compound 13],inhibition in vivo at 100 mg/kg,[4]; [6],50%
same,inhibition in vivo at 100 mg/kg,[4]; [7],17%
N#CC[S+]([O-])CCc1ccc2c(c1)OCO2 (centres unmarked) [Compound 33],inhibition in vivo at 50 mg/kg,[3]; [6],82%
same,inhibition in vivo at 50 mg/kg,[3]; [7],78%
"CC1Oc2ccc(CCSCC(=O)O)cc2O1 (centres unmarked) [Example 12, Sodium [{2-(2-methyl-1,3-benzodioxol-5-yl)ethyl}-thio]acetate]",inhibition in vivo at 50 mg/kg,[3]; [6],85%
same,inhibition in vivo at 50 mg/kg,[3]; [7],85%
"c1ccc(CCSSCCCc2ccc3c(c2)OCO3)cc1 [Compound 6, 3-(1,3-Benzodioxol-5-yl)propyl phenethyl disulfide]",inhibition in vivo at 100 mg/kg,[5]; [6],55%
same,inhibition in vivo at 100 mg/kg,[5]; [7],53%
"CCCCCCCCCSSCCCc1ccc2c(c1)OCO2 [Compound 9, 3-(1,3-Benzodioxol-5-yl)propyl nonyl disulfide]",inhibition in vivo at 100 mg/kg,[5]; [6],53%
same,inhibition in vivo at 100 mg/kg,[5]; [7],49%
N#CC(SCCc1ccc2c(c1)OCO2)C(=O)O (centres unmarked) [Compound 28],inhibition in vivo at 50 mg/kg,[3]; [6],44%
same,inhibition in vivo at 50 mg/kg,[3]; [7],45%
O=C(OCCSSCCCc1ccc2c(c1)OCO2)c1cccnc1 [compound 7],inhibition in vivo at 100 mg/kg,[5]; [6],72%
same,inhibition in vivo at 100 mg/kg,[5]; [7],43%
CC(C)c1cc2c(cc1CCSCC(=O)O)OCO2 [Compound 9],inhibition in vivo at 100 mg/kg,[4]; [6],88%
same,inhibition in vivo at 100 mg/kg,[4]; [7],67%
CC(=O)CS(=O)(=O)CCc1ccc2c(c1)OCO2 [Compound 34],inhibition in vivo at 50 mg/kg,[3]; [6],37%
same,inhibition in vivo at 50 mg/kg,[3]; [7],17%
O=C(O)CNC(=O)CSCCc1ccc2c(c1)OCO2 [Compound 23],inhibition in vivo at 100 mg/kg,[1]; [6],77%
same,inhibition in vivo at 100 mg/kg,[1]; [7],92%
O=C(O)CCCCCSCCc1ccc2c(c1)OCO2 [Compound 12],inhibition in vivo at 50 mg/kg,[1]; [6],69%
same,inhibition in vivo at 50 mg/kg,[1]; [7],75%
CC(C)(SCC(N)=O)c1ccc2c(c1)OCO2 [Compound 11],inhibition in vivo at 100 mg/kg,[4]; [6],97%
same,inhibition in vivo at 100 mg/kg,[4]; [7],68%
"SCCc1ccc2c(c1)OCO2 [Compound 1, 2-(1,3-Benzodioxol-5-yl)ethanethiol]",inhibition in vivo at 100 mg/kg,[1]; [6],91%
same,inhibition in vivo at 100 mg/kg,[1]; [7],96%
c1ncc(CSCCc2ccc3c(c2)OCO3)[nH]1 [Compound 8],inhibition in vivo at 50 mg/kg,[3]; [6],28%
same,inhibition in vivo at 50 mg/kg,[3]; [7],61%
"c1cc(CSCCc2ccc3c(c2)OCO3)ccn1 [Example 6, 2-(1,3-Benzodioxol-5-yl)ethyl (pyridin-4-yl)methyl sulfide]",inhibition in vivo at 50 mg/kg,[3]; [6],64%
same,inhibition in vivo at 50 mg/kg,[3]; [7],76%
Cc1cc2c(cc1CSCC(=O)O)OCO2 [Compound 6],inhibition in vivo at 100 mg/kg,[4]; [6],100%
same,inhibition in vivo at 100 mg/kg,[4]; [7],100%
"N#CCSCCc1ccc2c(c1)OCO2 [Example 2, [{2-(1,3-Benzodioxol-5-yl)ethyl}thio]acetonitrile]",inhibition in vivo at 50 mg/kg,[3]; [6],88%
same,inhibition in vivo at 50 mg/kg,[3]; [7],100%
"c1ccc(CSCCc2ccc3c(c2)OCO3)nc1 [Example 7, 2-(1,3-Benzodioxol-5-yl)ethyl (pyridin-2-yl)methyl sulfide]",inhibition in vivo at 50 mg/kg,[3]; [6],37%
same,inhibition in vivo at 50 mg/kg,[3]; [7],58%
"O=C(O)CSCCc1ccc2c(c1)OCO2 [Compound 8, Sodium [{2-(1,3-benzodioxol-5-yl)ethyl}thio]acetate]",inhibition in vivo at 100 mg/kg,[1]; [6],97%
same,inhibition in vivo at 100 mg/kg,[1]; [7],97%
CCC(SCC(=O)O)c1cc2c(cc1C)OCO2 (centres unmarked) [Compound 4],inhibition in vivo at 100 mg/kg,[4]; [6],89%
same,inhibition in vivo at 100 mg/kg,[4]; [7],100%
CC(C)(SCC(=O)O)c1ccc2c(c1)OCO2 [Compound 2],inhibition in vivo at 100 mg/kg,[4]; [6],76%
same,inhibition in vivo at 100 mg/kg,[4]; [7],83%
"O=C(OCCSSCCc1ccc2c(c1)OCO2)c1cccnc1 [Compound 3, 2-[{2-(1,3-Benzodioxol-5-yl)ethyl}dithio]ethyl nicotinate]",inhibition in vivo at 100 mg/kg,[5]; [6],92%
same,inhibition in vivo at 100 mg/kg,[5]; [7],62%
N#CCS(=O)(=O)CCc1ccc2c(c1)OCO2 [Compound 37],inhibition in vivo at 50 mg/kg,[3]; [6],52%
same,inhibition in vivo at 50 mg/kg,[3]; [7],44%
Cc1cc2c(cc1CCSCC(=O)O)OCO2 [Compound 16],inhibition in vivo at 50 mg/kg,[3]; [6],25%
same,inhibition in vivo at 50 mg/kg,[3]; [7],41%
CC(Cc1ccc2c(c1)OCO2)SSC(C)Cc1ccc2c(c1)OCO2 (centres unmarked) [compound 11],inhibition in vivo at 100 mg/kg,[5]; [6],76%
same,inhibition in vivo at 100 mg/kg,[5]; [7],68%
"CC(Cc1ccc2c(c1)OCO2)SSCCO (centres unmarked) [Compound 12, 2-[{2-(1,3-Benzodioxol-5-yl)-1-methylethyl}dithio]ethanol]",inhibition in vivo at 100 mg/kg,[5]; [6],63%
same,inhibition in vivo at 100 mg/kg,[5]; [7],45%
CC(C)S(=O)(=O)CCc1ccc2c(c1)OCO2 [Compound 36],inhibition in vivo at 50 mg/kg,[3]; [6],59%
same,inhibition in vivo at 50 mg/kg,[3]; [7],68%
